Assay [1] has as its system Escherichia coli. Description: Decrease in susceptibility of qnrS-positive transconjugant streptomycin-resistant Escherichia coli C600. In kind it is functional.
The test system of assay [2] is Enterobacter cloacae. Description: Susceptibility of qnr positive Enterobacter cloacae assessed as percentage nonsusceptible isolates. In kind it is functional.
Assay [3] has as its system Enterobacter cloacae. Put plainly: Susceptibility of qnr positive Enterobacter cloacae producing IMP8 and/or SHV12 assessed as percentage nonsusceptible isolates.
Assay [4] concerns Enterobacter cloacae. Put plainly: Susceptibility of metallo beta lactamase and extended spectrum beta lactamase deficient qnr positive Enterobacter cloacae assessed as percentage nonsusceptible isolates. The class given is functional.
In assay [5] the test system is Enterobacter cloacae. Description: Susceptibility of qnr positive Enterobacter cloacae. In kind it is functional.
Assay [6] concerns Escherichia coli. Description: Decrease in susceptibility of qnrB-positive transconjugant streptomycin-resistant Escherichia coli C600. In kind it is functional.

In brackets after ≈: the same amount, converted by molar mass. Activity calls are given as the source filed them. The rule behind the calls is not given here.

As for `CC(=O)OCC1=C(C(=O)O)N2C(=O)[C@@H](NC(=O)Cc3cccs3)[C@H]2SC1`, the outcome in the assay on Escherichia coli [1] was inactive. The same measure, in the same setting: for `CC1(C)S[C@@H]2[C@H](NC(=O)[C@H](N)c3ccccc3)C(=O)N2[C@H]1C(=O)O` the value was “inactive”. Take `NCC[C@H](O)C(=O)N[C@@H]1C[C@H](N)[C@@H](O[C@H]2O[C@H](CN)[C@@H](O)[C@H](O)[C@H]2O)[C@H](O)[C@H]1O[C@H]1O[C@H](CO)[C@@H](O)[C@H](N)[C@H]1O` [AMIKACIN]: the Activity in the assay with Enterobacter cloacae [2] worked out at 3.5%. As for `CO/N=C(\C(=O)N[C@@H]1C(=O)N2C(C(=O)O)=C(COC(C)=O)CS[C@H]12)c1csc(N)n1` [CEFOTAXIME], the Activity with Enterobacter cloacae [2] was determined as 97.8%.

As to `CC(C)(O/N=C(\C(=O)N[C@@H]1C(=O)N2C(C(=O)[O-])=C(C[n+]3ccccc3)CS[C@H]12)c1csc(N)n1)C(=O)O` [CEFTAZIDIME], the results for the Activity with Enterobacter cloacae [3], in the assay on Enterobacter cloacae [2] and in the assay with Enterobacter cloacae [4] were 100%, 86% and 29.4%, respectively. For the compound `O=C(O)c1cn(C2CC2)c2cc(N3CCNCC3)c(F)cc2c1=O` [CIPROFLOXACIN], the Activity with Escherichia coli [1] was determined as 0.25 µg/mL. Turning to `C[C@@H](O)[C@H]1C(=O)N2C(C(=O)O)=C(SCCNC=N)C[C@H]12` [IMIPENEM ANHYDROUS], in the assay with Enterobacter cloacae [2], the Activity is 9.3%.

The compound `CCn1cc(C(=O)O)c(=O)c2ccc(C)nc21` [NALIDIXIC ACID] came in with an MIC90 in the assay on Enterobacter cloacae [5] greater than 256 µg/mL. The MIC in the assay on Escherichia coli [6] came out at 16 µg/mL (≈ 68.9 µM); in the assay on Escherichia coli [1] (Escherichia coli, C600), 16 µg/mL (≈ 68.9 µM). For the same compound, the Activity in the assay with Enterobacter cloacae [2] was 100%.

The record behind these values is ChEMBL document CHEMBL1147091, “Prevalence of plasmid-mediated quinolone resistance determinants QnrA, QnrB, and QnrS among clinical isolates of Enterobacter cloacae in a Taiwanese hospital” (2007).
